Measurements as given in US8466311B2, “Neuroprotective compositions and methods” (Sanford-Burnham Medical Research Institute, priority 2006, dated 2013).

Columns and labels:
NFAT-binding site = assay: Enhancer element luciferase reporter p3xNFATluc; assay type: cell-based; conditions: NEPP11 2 μM
Procedure: Because the E1 and E2 regions also contain other enhancer elements, we tested the effects of NEPP11 (2 μM) on the expression of luciferase activity derived from these elements, including the cAMP-responsive element (CRE; p3xCREluc), AP-1 binding site (p3xAP1luc), NF-κB binding site (p3xNF-κBluc), NFAT-binding site (p3xNFATluc), ETS-binding site (p3xETSluc), and MEF2-binding site (p3xMEF2luc).

Nrf2-GFP fusion protein = assay: Localization of Nrf2-GFP fusion protein in transfected HT22 cells; assay type: cell-based; conditions: NEPP11 2 μM, 24 h
Procedure: Activation of the Keap1/Nrf2 pathway by NEPP compounds in a neuronal cell line. Next, we examined the localization of an Nrf2-Green Fluorescent Protein (GFP) fusion protein (Numazawa et al., Am. J. Physiol. 285:C334-C342, 2003) in transfected HT22 cells. HT22 cells transfected with pNrf2-GFP were treated with vehicle or NEPP11 (2 μM) for 24 h and observed under epifluorescence microscopy. […] Thus we hypothesized that nuclear levels of Nrf2 protein should increase when cells are exposed to an electrophile such as NEPP, which promotes nuclear translocation. To test this hypothesis, cytosolic and nuclear fractions (200 μg protein) from cells that had been treated with vehicle or 2 μM NEPP11 for 24 h were precipitated and probed with anti-Nrf2 antibody and with anti-NeuN, a neuronal-specific nuclear protein. Indeed, we confirmed this hypothesis.

Keap1 = biological target: T1, Keap1 (Mus musculus, UniProt Q9Z2X8); assay: Binding of CAB/CA to Keap1 and Keap1 deletion mutants (streptavidin precipitation); conditions: PC12h cells transfected with Keap1 (non-HA-tagged)
T1 construct: expressed in transfected cells; host or cells: COS7 cells
Procedure: (3) Expression vectors for HA-tagged Keap1 and Keap1 deletion mutants. These constructs were obtained from Dr. Akira Kobayashi of Tohoku University (Hosoya et al., J. Biol. Chem. 29:27244-27250, 2006; Kobayashi et al., Mol. Cell. Biol. 26:221-229, 2006).
Immunoprecipitation with agarose-immobilized streptavidin or antibody. PC12h cells (CAB- or vehicle-treated) were lysed in RIPA buffer supplemented with protease inhibitor cocktail. The lysates were centrifuged at 15,000 rpm for 10 min at 4° C., after which the supernatants were incubated with agarose-immobilized streptavidin at 4° C. for 1 h. Alternatively, for immunoprecipitation with anti-Keap1, the cell lysates were incubated with the antibody at 4° C. overnight, after which protein A immobilized on Sepharose CL-4B was added and incubation continued at 4° C. for 1 h. Then, the complexes were washed three times with rinse buffer (150 mM NaCl, 50 mM Tris-HCl [pH 7.5], 0.1% NP-40, 1 mM EDTA, and 0.02% NaN3). SDS sample buffer was added, the mixture was boiled for 5 min, and the supernatants were subjected to SDS-PAGE. Immunoblotting was then performed as described above.
CA activates the Keap1/Nrf2/ARE pathway. […] The initial reaction in this activation cascade is the binding of an electrophilic compound to specific cysteines on Keap1 protein (Hong et al., Chem. Res. Toxicol. 18: 1917-1926, 2005; Eggler et al., Proc. Nat. Acad. Sci. USA 102:10070-10075, 2005; Zhang et al., Mol. Cell. Biol. 10941-10953, 2004). Such binding initiates a cellular transcription pathway leading to induction of phase 2 enzymes (Talalay, Biofactors 12:5-11, 2000; Padmanabham et al., Mol. Cell 21:689-700, 2006; Itoh et al., Free Radic. Biol. Med. 36:1208-1213, 2004). Therefore, we examined the domains of Keap1 (designated BTB, IVR, and DGR) to determine those essential for binding to CA. Accordingly, for co-immunoprecipitation experiments, we transfected COS7 cells with DNA expressing either HA-tagged wild type Keap1 protein (HA-WT Keap1) or various deletion mutants of tagged Keap1 protein (HA-ΔBTB Keap1, HA-ΔIVR Keap1, and HA-ΔDGR Keap1). The transfected COS7 cells were then treated with vehicle or 10 μM CAB and lysed. We quantified the expression level of Keap1 protein in total cell lysates with anti-HA antibody. Each Keap1 mutant protein was expressed at a similar level of the predicted molecular weight (57 kDa for HA-ΔBTB Keap1, 53 kDa for HA-ΔIVR Keap1, and 37 kDa for HA-ΔDGR Keap1). Next, in order to detect Keap1/CAB complexes, we immunoprecipitated cell lysates with streptavidin and probed with anti-HA antibody. […] The requirement of the BTB domain for CA binding is in accord with prior results (Hong et al., Chem. Res. Toxicol. 18:1917-1926, 2005; Eggler et al., Proc. Nat. Acad. Sci. USA 102:10070-10075, 2005; Zhang et al., Mol. Cell. Biol. 24:10941-10953, 2004).
After binding of the electrophilic quinone-form of CA to Keap1 protein, activation of the Keap1/Nrf2 pathway requires nuclear translocation of Nrf2 (Talalay, Biofactors 12:5-11, 2000; Padmanabham et al., Mol. Cell 21:689-700, 2006; Itoh et al., Free Radic. Biol. Med. 36:1208-1213, 2004). Thus, we next examined the intracellular distribution of Nrf2 protein in COS7 cells by immunofluorescence.

[1] = Translocation of CA into the brain (HPLC of serum and brain); assay type: in vivo, mouse
Procedure: Translocation of CA into the brain detected by high-performance liquid chromatography (HPLC). For experiments testing penetration of drug into the CNS, we used adult male C57BL/6 mice (Charles River) weighing 22-26 g. The mice were kept in cages with ad libitum access to food and water under standardized housing conditions (natural light-dark cycle, temperature of 23±3° C., relative humidity of 50±10%). After a seven-day adaptation to laboratory conditions, the animals were randomly assigned to each experimental group (n=10 mice each). Four C57 BL/6 mice, fastened for 18 h, were each orally administered 3 mg of CA in 0.3 ml olive oil. One and three h after the injection, under ether anesthesia, serum and brain were isolated for chemical analysis. CA was extracted from tissue with acetonitrile and ethanol. CA levels were obtained by HPLC (column, μBondasphere C18; temperature, 40 C; HPLC system, Shimadzu [Kyoto, Japan] LC10Avp; detector, UV 230 nm; running solvent 2% acetic acid or acetonitrile, 30% B isocratic at 1 ml/min).
CA accumulation in the brain. For the development of CA as a protective agent against neurodegenerative diseases, penetration into the brain is an essential requirement. To examine this aspect, we administered CA orally to mice (3 mg per 25 g mouse) and measured the level of CA (catechol-form) in serum and brain parenchyma by HPLC.

T1 sequence (Q9Z2X8 whole entry): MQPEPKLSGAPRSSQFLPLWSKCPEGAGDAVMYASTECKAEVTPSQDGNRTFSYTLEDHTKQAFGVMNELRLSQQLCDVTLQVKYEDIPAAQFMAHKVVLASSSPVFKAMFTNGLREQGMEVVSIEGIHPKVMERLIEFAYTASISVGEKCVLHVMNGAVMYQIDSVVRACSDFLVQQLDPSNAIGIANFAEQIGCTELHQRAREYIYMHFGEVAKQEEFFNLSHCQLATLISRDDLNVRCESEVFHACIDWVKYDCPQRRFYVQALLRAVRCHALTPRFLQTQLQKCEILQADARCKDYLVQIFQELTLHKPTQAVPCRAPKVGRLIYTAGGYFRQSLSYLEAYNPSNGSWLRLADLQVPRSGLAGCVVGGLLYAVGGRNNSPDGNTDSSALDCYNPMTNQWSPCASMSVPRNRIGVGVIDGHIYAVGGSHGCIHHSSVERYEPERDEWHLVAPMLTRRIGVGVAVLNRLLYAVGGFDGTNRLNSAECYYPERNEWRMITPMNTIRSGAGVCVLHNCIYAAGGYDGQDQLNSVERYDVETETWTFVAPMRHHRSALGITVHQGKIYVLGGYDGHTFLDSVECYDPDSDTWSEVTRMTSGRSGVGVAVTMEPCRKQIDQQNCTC

In the case of `COC(=O)CCCCC/C=C1/C(=O)C=C[C@H]1CCCCCCc1ccc(C)cc1` [NEPP11], the “activity of p3xNFATluc” value (NFAT-binding site) is reported as “slightly depressed” and the “localization of Nrf2-GFP” value (Nrf2-GFP fusion protein) is reported as “translocated into the nucleus”.
For `CC(C)c1cc2c(c(O)c1O)[C@@]1(C(=O)O)CCCC(C)(C)[C@@H]1CC2` [CA, carnosic acid], the “complex formation with Keap1” value (Keap1) was “formed CA/Keap1 complexes”, the brain permeability ([1]; mouse, in vivo) was “brain permeable” and the “time to reach significant levels in the brain” value ([1]; oral, 3 mg per 25 g mouse) was no more than 1 h.
